# Several values for one entry are separate records, joined by “and”; a condition that tells them apart may be missing. Identical values can stand only once. Where a SMILES comes first, the peptide text is derived from it. The star is where a group is joined. βNA = c1ccc2cc(N*)ccc2c1
# Tested on: C. elegans
# Conditions: Table S2, C. elegans SS assay, 110 μM, averages of 4 data points
structure (smiles),measurement,value
CO[C@@H]1[C@@H](OC(N)=O)[C@@H](O)[C@H](Oc2ccc3c([O-])c(NC(=O)c4ccc(O)c(CC=C(C)C)c4)c(=O)oc3c2C)OC1(C)C.[Na+] [Novobiocin (sodium)],Percentage of motility inhibition 0 h,6%
same,Percentage of motility inhibition 24 h,6%
Cn1cc(C(N)=O)ccc1=O [Nudifloramide],Percentage of motility inhibition 0 h,0%
same,Percentage of motility inhibition 24 h,0%
CC(=O)NCCc1c[nH]c2ccc(O)cc12 [N‐Acetyl‐5‐hydroxytryptamine],Percentage of motility inhibition 0 h,0%
same,Percentage of motility inhibition 24 h,0%
"O=C(N[C@@H](c1ccccc1)[C@@H](O)C(=O)O)c1ccccc1 [N‐Benzoyl‐(2R,3S)‐3‐phenylisoserine]",Percentage of motility inhibition 0 h,54%
same,Percentage of motility inhibition 24 h,29%
CCCCC/C=C\C/C=C\CCCCCCCC(=O)NCc1ccccc1 [N‐Benzyllinoleamide],Percentage of motility inhibition 0 h,0%
same,Percentage of motility inhibition 24 h,0%
CC/C=C\C/C=C\C/C=C\CCCCCCCC(=O)NCc1ccccc1 [N‐Benzyllinolenamide],Percentage of motility inhibition 0 h,2%
same,Percentage of motility inhibition 24 h,0%
CCCCCCCCCCCCCCCCCC(=O)NCc1ccccc1 [N‐Benzyloctadecanamide],Percentage of motility inhibition 0 h,35%
same,Percentage of motility inhibition 24 h,17%
CCCCCCCCCCCCCCCC(=O)NCc1ccccc1 [N‐Benzylpalmitamide],Percentage of motility inhibition 0 h,0%
same,Percentage of motility inhibition 24 h,20%
COc1ccc(CCNC(=O)/C=C/c2ccc(O)c(O)c2)cc1 [N‐Caffeoyl O‐methyltyramine],Percentage of motility inhibition 0 h,0%
same,Percentage of motility inhibition 24 h,0%
COc1cc[nH]c(=O)c1C#N [N‐Demethylricinine],Percentage of motility inhibition 0 h,0%
same,Percentage of motility inhibition 24 h,7%
COc1ccc2c3c1O[C@H]1C[C@@H](O)C=C[C@@]31CCNC2 [N‐Desmethyl Galanthamine],Percentage of motility inhibition 0 h,0%
same,Percentage of motility inhibition 24 h,0%
COc1cc(/C=C/C(=O)NCC(O)c2ccc(O)cc2)ccc1O (centres unmarked) [N‐Feruloyloctopamine],Percentage of motility inhibition 0 h,14%
same,Percentage of motility inhibition 24 h,0%
COc1cc(/C=C/C(=O)NCCc2c[nH]c3ccc(O)cc23)ccc1O [N‐Feruloylserotonin],Percentage of motility inhibition 0 h,11%
same,Percentage of motility inhibition 24 h,18%
O=CN1C[C@@H]2C[C@H](C1)c1cccc(=O)n1C2 [N‐Formylcytisine],Percentage of motility inhibition 0 h,0%
same,Percentage of motility inhibition 24 h,0%
CN1C[C@@H]2C[C@H](C1)c1cccc(=O)n1C2 [N‐Methylcytisine],Percentage of motility inhibition 0 h,0%
same,Percentage of motility inhibition 24 h,0%
Cn1c(=O)c2c(c3ccccc31)OC(C)(C)C=C2 [N‐Methylflindersine],Percentage of motility inhibition 0 h,0%
same,Percentage of motility inhibition 24 h,1%
CN1CC(=O)NC1=O [N‐Methylhydantoin],Percentage of motility inhibition 0 h,13%
same,Percentage of motility inhibition 24 h,16%
COc1cc2c3c(c1OC)-c1ccccc1C[C@H]3[N+](C)(C)CC2 [N‐Methylnuciferine],Percentage of motility inhibition 0 h,0%
same,Percentage of motility inhibition 24 h,0%
COc1cc2c3c(c1OC)-c1ccccc1C[C@H]3NCC2 [N‐Nornuciferine],Percentage of motility inhibition 0 h,13%
same,Percentage of motility inhibition 24 h,0%
COc1cc(/C=C/C(=O)NCCc2ccc(O)cc2)ccc1O [N‐trans‐Feruloyltyramine],Percentage of motility inhibition 0 h,5%
same,Percentage of motility inhibition 24 h,16%
O=C(/C=C/c1ccc(O)c(O)c1)c1ccc(O)c(O)c1O [Okanin],Percentage of motility inhibition 0 h,9%
same,Percentage of motility inhibition 24 h,31%
CC1(C)CC[C@]2(C(=O)O[C@@H]3O[C@H](CO)[C@@H](O)[C@H](O)[C@H]3O)CC[C@]3(C)C(=CC[C@@H]4[C@@]5(C)CC[C@H](O)C(C)(C)[C@@H]5CC[C@]43C)[C@@H]2C1 [Oleanolic acid 28-O-β-D-glucopyranoside],Percentage of motility inhibition 0 h,33%
same,Percentage of motility inhibition 24 h,34%
COC(=O)C1=COC(O[C@@H]2O[C@H](CO)[C@@H](O)[C@H](O)[C@H]2O)/C(=C/C(=O)O)C1CC(=O)OCCc1ccc(O)c(O)c1 (some centres unmarked) [Oleuropeinic acid],Percentage of motility inhibition 0 h,0%
same,Percentage of motility inhibition 24 h,8%
O=C([O-])c1cc(/N=N/c2ccc(O)c(C(=O)[O-])c2)ccc1O.[Na+].[Na+] [Olsalazine (Disodium)],Percentage of motility inhibition 0 h,6%
same,Percentage of motility inhibition 24 h,12%
COc1ccc(/C=C/C(=O)O[C@@H]2[C@H](O[C@@H]3O[C@@H](C)[C@H](O)[C@@H](O)[C@H]3O)[C@@H](O[C@@H]3O[C@@H](C)[C@H](O[C@@H]4OC[C@@H](O[C@@H]5O[C@H](CO)[C@H](O)[C@H](O)[C@H]5O)[C@H](O)[C@H]4O)[C@@H](O)[C@H]3O)[C@H](OC(=O)[C@]34CCC(C)(C)C[C@H]3C3=CC[C@@H]5[C@@]6(C)C[C@H](O)[C@H](O[C@@H]7O[C@H](CO)[C@@H](O)[C@H](O)[C@H]7O)[C@@](C)(C(=O)O)[C@@H]6CC[C@@]5(C)[C@]3(CO)CC4)O[C@@H]2C)cc1 [Onjisaponin B],Percentage of motility inhibition 0 h,30%
same,Percentage of motility inhibition 24 h,33%
COc1cc(/C=C/C(=O)O[C@@H]2[C@H](O[C@@H]3O[C@@H](C)[C@H](O)[C@@H](O)[C@H]3O)[C@@H](O[C@@H]3O[C@@H](C)[C@H](O[C@@H]4OC[C@@H](O)[C@H](O)[C@H]4O)[C@@H](O)[C@H]3O)[C@H](OC(=O)[C@]34CCC(C)(C)C[C@H]3C3=CC[C@@H]5[C@@]6(C)C[C@H](O)[C@H](O[C@@H]7O[C@H](CO)[C@@H](O)[C@H](O)[C@H]7O)[C@@](C)(C(=O)O)[C@@H]6CC[C@@]5(C)[C@]3(CO)CC4)O[C@@H]2C)cc(OC)c1OC [Onjisaponin Z],Percentage of motility inhibition 0 h,4%
same,Percentage of motility inhibition 24 h,21%
CN[C@H](CC(C)C)C(=O)N[C@H]1C(=O)N[C@@H](CC(N)=O)C(=O)N[C@H]2C(=O)N[C@H]3C(=O)N[C@H](C(=O)N[C@H](C(=O)O)c4cc(O)cc(O)c4-c4cc3ccc4O)[C@H](O[C@H]3C[C@](C)(N)[C@@H](O)[C@H](C)O3)c3ccc(c(Cl)c3)Oc3cc2cc(c3O[C@@H]2O[C@H](CO)[C@@H](O)[C@H](O)[C@H]2O[C@H]2C[C@](C)(NCc3ccc(-c4ccc(Cl)cc4)cc3)[C@@H](O)[C@H](C)O2)Oc2ccc(cc2Cl)[C@H]1O.O=P(O)(O)O.O=P(O)(O)O [Oritavancin (diphosphate)],Percentage of motility inhibition 0 h,34%
same,Percentage of motility inhibition 24 h,8%
Cc1ncc([N+](=O)[O-])n1CC(O)CCl (centres unmarked) [Ornidazole (Levo‐)],Percentage of motility inhibition 0 h,27%
same,Percentage of motility inhibition 24 h,23%
O=c1cc(-c2ccccc2)oc2cc(O[C@@H]3O[C@H](CO)[C@@H](O)[C@H](O)[C@H]3O)c(O)c(O)c12 [Oroxin A],Percentage of motility inhibition 0 h,0%
same,Percentage of motility inhibition 24 h,1%
O=c1cc(-c2ccccc2)oc2cc(O[C@@H]3O[C@H](CO[C@@H]4O[C@H](CO)[C@@H](O)[C@H](O)[C@H]4O)[C@@H](O)[C@H](O)[C@H]3O)c(O)c(O)c12 [Oroxin B],Percentage of motility inhibition 0 h,0%
same,Percentage of motility inhibition 24 h,0%
COc1c(O[C@@H]2O[C@H](C(=O)O)[C@@H](O)[C@H](O)[C@H]2O)cc2oc(-c3ccccc3)cc(=O)c2c1O [Oroxylin A‐7‐O‐glucuronide],Percentage of motility inhibition 0 h,0%
same,Percentage of motility inhibition 24 h,1%
CCOC(=O)C1=C[C@@H](OC(CC)CC)[C@H](NC(C)=O)[C@@H](N)C1.O=P(O)(O)O [Oseltamivir ( phosphate)],Percentage of motility inhibition 0 h,0%
same,Percentage of motility inhibition 24 h,0%
CCC(CC)O[C@@H]1C=C(C(=O)O)C[C@H](N)[C@H]1NC(C)=O [Oseltamivir (acid)],Percentage of motility inhibition 0 h,18%
same,Percentage of motility inhibition 24 h,8%
C[C@@H]1O[C@@H](O[C@H]2C[C@@H](O)[C@]3(CO)[C@H]4[C@H](O)C[C@]5(C)[C@@H](C6=CC(=O)OC6)CC[C@]5(O)[C@@H]4CC[C@]3(O)C2)[C@H](O)[C@H](O)[C@H]1O.O.O.O.O.O.O.O.O [Ouabain (Octahydrate)],Percentage of motility inhibition 0 h,0%
same,Percentage of motility inhibition 24 h,2%
Cc1onc(-c2ccccc2)c1C(=O)N[C@@H]1C(=O)N2[C@@H]1SC(C)(C)[C@@H]2C(=O)[O-].O.[Na+] [Oxacillin (sodium monohydrate)],Percentage of motility inhibition 0 h,27%
same,Percentage of motility inhibition 24 h,9%
CN1CCCN=C1/C=C/c1cccc(O)c1.O=C(O)c1cc2ccccc2c(Cc2c(O)c(C(=O)O)cc3ccccc23)c1O [Oxantel (pamoate)],Percentage of motility inhibition 0 h,54%
same,Percentage of motility inhibition 24 h,33%
O=C1CCCC2C3CCC[N+]4([O-])CCCC(CN12)C34 (centres unmarked) [Oxysophoridine],Percentage of motility inhibition 0 h,18%
same,Percentage of motility inhibition 24 h,9%
CN1CC[C@@]23C=C[C@H](O)C[C@@H]2Oc2c(O)ccc(c23)C1 [O‐Desmethyl Galantha mine],Percentage of motility inhibition 0 h,4%
same,Percentage of motility inhibition 24 h,5%
Cl.Cl.NC(N)=NCCC[C@H](NC(=O)[C@@H](N)Cc1ccccc1)C(=O)Nc1ccc2ccccc2c1 [PAβN (dihydrochloride)] (H-Phe-Arg-βNA),Percentage of motility inhibition 0 h,9%
same,Percentage of motility inhibition 24 h,6%
C[C@@]1(F)[C@H](O)[C@@H](CO)O[C@H]1n1ccc(=O)[nH]c1=O [PSI‐6206],Percentage of motility inhibition 0 h,19%
same,Percentage of motility inhibition 24 h,5%
CC(=O)O[C@H]1C(=O)[C@@]2(C)[C@H]([C@H](OC(=O)c3ccccc3)[C@]3(O)C[C@H](OC(=O)[C@H](O)[C@@H](NC(=O)c4ccccc4)c4ccccc4)C(C)=C1C3(C)C)[C@]1(OC(C)=O)CO[C@@H]1C[C@@H]2O [Paclitaxel],Percentage of motility inhibition 0 h,18% and 29%
same,Percentage of motility inhibition 24 h,12% and 23%
CSC(=O)OCC1=C[C@@H]2OC(=O)C3=CO[C@@H](O[C@@H]4O[C@H](CO)[C@@H](O)[C@H](O)[C@H]4O)[C@H]1[C@@H]32 [Paederoside],Percentage of motility inhibition 0 h,9%
same,Percentage of motility inhibition 24 h,4%
CSC(=O)OCC1=C[C@H](O)[C@H]2C(C(=O)O)=CO[C@@H](O[C@@H]3O[C@@H](CO)[C@@H](O)[C@@H](O)[C@H]3O)[C@H]12 [Paederosidic acid],Percentage of motility inhibition 0 h,0%
same,Percentage of motility inhibition 24 h,0%

# Source: paper PMC11855827, “High-Throughput Screening of Five Compound Libraries for Anthelmintic Activity and Toxicity Leads to the Discovery of Two Flavonoid Compounds” (International Journal of Molecular Sciences, 2025)
